{"source": "patent US20150183737A1", "about": "“COMPOSITIONS AND METHODS FOR SUBSTRATE-SELECTIVE INHIBITION OF ENDOCANNABINOID OXYGENATION” (Vanderbilt University, priority 2012, published 2015)", "system": "ICR mice", "assay": "Novel open field test", "assay_type": "in vivo", "description": "Animals were tested for open-field activity in a novel environment one hour after i.p. injection of compound as described in Sumislawski et al., 2011. Briefly, one-hour sessions were performed using automated experimental chambers (27.9 27.9 cm; MEDOFA-510; MED Associates, Ga., Vermont, United States of America) under constant illumination within a sound-attenuated room. Analysis of open field activity was performed using Activity Monitor v5.10 (MED Associates).", "note": "Entries after “also recorded” stand apart in the source; their conditions may differ.", "data": [{"smiles": "COc1ccc2c(c1)c(CC(=O)N1CCOCC1)c(C)n2C(=O)c1ccc(Cl)cc1", "note": "[Compound A, 2-[1-(4-Chloro-benzoyl)-5-methoxy-2-methyl-1H-indol-3-yl]-1-morpholin-4-yl-ethanone]", "values": [{"measurement": "Center distance travelled and center time in the open-field arena", "setting": "10 mg/kg", "result": "increased"}, {"measurement": "Open field behavior in mice treated with Rimonabant", "setting": "Rimonabant 3 mg/kg", "result": "no significant behavioral effect"}, {"measurement": "Exploratory behavior and center time exploration in the open field (Example 8)", "setting": "most pronounced during minutes 40-60", "result": "dose-dependently increased"}, {"measurement": "Open field behavior (center distance or time) in CB1^(−/−) mice", "setting": "mouse, in vivo", "result": "did not produce any behavioral effect; also recorded: did not increase"}, {"measurement": "Open field behavior in COX-2^(−/−) mice", "setting": "mouse, in vivo", "result": "did not produce any significant behavioral effects"}, {"measurement": "Open field behavior in vehicle-pretreated mice", "setting": "mouse, in vivo", "result": "exerting anxiolytic actions"}, {"measurement": "Open field behavior in wild type littermates of COX-2^(−/−) mice", "setting": "mouse, in vivo", "result": "normal anxiolytic-like response"}, {"measurement": "Hypolocomotion", "setting": "open field data", "result": "did not cause hypolocomotion"}]}]}
